Source: ChEMBL document CHEMBL3399933, “A combination of in silico and SAR studies to identify binding hot spots of Bcl-xL inhibitors” (Bioorg Med Chem, 2015)

Molecular target: Bcl-2-like protein 1 (Homo sapiens, UniProt Q07817)
Assay: Inhibition of GST-tagged Bcl-xL (unknown origin) measured after 1 hr incubation by fluorescence polarization assay

Chain of Bcl-2-like protein 1 (Q07817 whole entry): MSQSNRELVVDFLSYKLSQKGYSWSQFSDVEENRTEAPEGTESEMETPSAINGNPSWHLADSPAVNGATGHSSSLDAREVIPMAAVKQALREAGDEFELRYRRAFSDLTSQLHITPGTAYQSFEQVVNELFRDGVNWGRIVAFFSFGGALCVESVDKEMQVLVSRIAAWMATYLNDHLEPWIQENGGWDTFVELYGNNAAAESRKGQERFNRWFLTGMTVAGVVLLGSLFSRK

| IC50 [µM] | Ki [µM] | SMILES |
| --- | --- | --- |
| 0.011 |  | CN(C)CC[C@H](CSc1ccccc1)Nc1ccc(S(=O)(=O)NC(=O)c2ccc(N3CCN(Cc4cccc(-c5ccccc5)c4)CC3)cc2)cc1[N+](=O)[O-] |
| 13 |  | CCCN(C(=O)N[C@@H](CSCc1ccc(Br)cc1)C(=O)O)C(=O)c1cccc(C#Cc2ccc(F)cc2F)c1 |
|  | 0.5 | O=C(O)c1ccccc1C(=O)c1ccc(Sc2ccc(Cl)cc2)c([N+](=O)[O-])c1 |
| 0.003 |  | CN(C)CC[C@H](CSc1ccccc1)Nc1ccc(S(=O)(=O)Nc2ncnc3cc(N4CCN(Cc5ccccc5-c5ccc(Cl)cc5)CC4)ccc23)cc1[N+](=O)[O-] |
| 0.006 |  | Cc1c(C(=O)O)c(-c2cccc(N3CCN(c4ccc(NS(=O)(=O)c5ccc(NC(CCN(C)C)CSc6ccccc6)c([N+](=O)[O-])c5)cc4)CC3)c2)c(-c2ccc(Cl)cc2)n1C (centres undefined) |
|  | 2.4 | CC(C)C(C(=O)O)N1C(=O)/C(=C/c2ccc(Br)cc2)SC1=S (centres undefined) |
| 22 |  | CCCN(C(=O)N[C@@H](CSCC(C)C)C(=O)O)C(=O)c1cccc(C#Cc2ccc(F)cc2F)c1 |

| SMILES | IC50 [µM] | Ki [µM] |
| --- | --- | --- |
| Cc1cc2c(C(C)C)c(O)c(O)c(C=O)c2c(O)c1-c1c(C)cc2c(C(C)C)c(O)c(O)c(C=O)c2c1O [GOSSYPOL] |  | 1 |
| O=C(O)c1cccc(-c2ccc3c(c2)/C(=N/Nc2nc4ccccc4s2)CCC3)n1 | 0.021 |  |
